These compounds were tested on human colon carcinoma NR− line (WIDR), wild-type (assay: Cytotoxicity, 18 h drug exposure, WiDr NR− line). Settings: Homo sapiens; WIDR cells, 18 h drug exposure; read-out: WiDr NR− IC50.
Assay type: cell-based
From the text: (§1) The Chinese hamster fibroblast NR− line (T78-1) is a V79/4 Chinese hamster fibroblast transfected with an empty shuttle vector, while the NR+ line (T79-A3) is the corresponding NR transfectant. The human colon carcinoma NR− line (WIDR) is wild-type, while the NR+ line (WC14 10) is the corresponding NR transfectant. The human ovarian carcinoma NR− line (SKOV3) is wild-type, while the NR+ line (SC3.2) is the corresponding NR transfectant. EMT6 is a mouse mammary carcinoma line, and EN2A is the NR-transformed counterpart.
Work on CS(=O)(=O)c1cc([N+](=O)[O-])c(C(N)=O)cc1N1CC1 [Compound 12, 5-(aziridin-1-yl)-4-(methylsulfonyl)-2-nitrobenzamide] yielded an IC50 of 224 µM.
NC(=O)c1c([N+](=O)[O-])ccc(N2CC2)c1[N+](=O)[O-] [Compound 13, 3-(aziridin-1-yl)-2,6-dinitrobenzamide] showed an IC50 of 312 µM.
Work on O=C(NCC(O)CO)c1cc([N+](=O)[O-])cc([N+](=O)[O-])c1N1CC1 (stereo not drawn) [Compound 17, 2-(aziridin-1-yl)-N-(2,3-dihydroxypropyl)-3,5-dinitrobenzamide] yielded an IC50 of 878 µM.

Same assay, conditions: WIDR cells, 18 h drug exposure; read-out: WiDr NR− IC50
O=C(NCCN1CCOCC1)c1cc(N2CC2)c([N+](=O)[O-])cc1[N+](=O)[O-] [Compound 3, 5-(aziridin-1-yl)-N-[2-(4-morpholino)ethyl]-2,4-dinitrobenzamide] showed an IC50 of 131 µM.

Each compound was assayed on Chinese hamster fibroblast NR− line (T78-1), V79/4 transfected with an empty shuttle vector (assay: Cytotoxicity, 18 h drug exposure, V79 NR− line (T78-1)). Settings: Cricetulus griseus; T78-1 cells, 18 h drug exposure; read-out: V-79 NR− IC50.
Assay type: cell-based
From the text: as §1
With CS(=O)(=O)c1cc([N+](=O)[O-])c(C(N)=O)cc1N1CC1 [Compound 12, 5-(aziridin-1-yl)-4-(methylsulfonyl)-2-nitrobenzamide] the IC50 was 419 µM.
NC(=O)c1c([N+](=O)[O-])ccc(N2CC2)c1[N+](=O)[O-] [Compound 13, 3-(aziridin-1-yl)-2,6-dinitrobenzamide] was tested, and the IC50 was 437 µM.
O=C(NCC(O)CO)c1cc([N+](=O)[O-])cc([N+](=O)[O-])c1N1CC1 (stereo not drawn) [Compound 17, 2-(aziridin-1-yl)-N-(2,3-dihydroxypropyl)-3,5-dinitrobenzamide] showed an IC50 of 1440 µM.

Same assay, conditions: T78-1 cells, 18 h drug exposure; read-out: V-79 NR− IC50
With O=C(NCCN1CCOCC1)c1cc(N2CC2)c([N+](=O)[O-])cc1[N+](=O)[O-] [Compound 3, 5-(aziridin-1-yl)-N-[2-(4-morpholino)ethyl]-2,4-dinitrobenzamide] the IC50 was 571 µM.

These compounds were tested on human ovarian carcinoma NR− line (SKOV3), wild-type (assay: Cytotoxicity, 18 h drug exposure, SKOV3 NR− line). Settings: Homo sapiens, SK-OV-3; SKOV3 cells, 18 h drug exposure; read-out: SKOV NR− IC50.
Assay type: cell-based
From the text: as §1
CS(=O)(=O)c1cc([N+](=O)[O-])c(C(N)=O)cc1N1CC1 [Compound 12, 5-(aziridin-1-yl)-4-(methylsulfonyl)-2-nitrobenzamide] was tested, and the IC50 was 393 µM.
NC(=O)c1c([N+](=O)[O-])ccc(N2CC2)c1[N+](=O)[O-] [Compound 13, 3-(aziridin-1-yl)-2,6-dinitrobenzamide] gave an IC50 of 584 µM.
Compound O=C(NCC(O)CO)c1cc([N+](=O)[O-])cc([N+](=O)[O-])c1N1CC1 (stereo not drawn) [Compound 17, 2-(aziridin-1-yl)-N-(2,3-dihydroxypropyl)-3,5-dinitrobenzamide] has an IC50 of 1300 µM.

Same assay, conditions: SKOV3 cells, 18 h drug exposure; read-out: SKOV NR− IC50
Compound O=C(NCCN1CCOCC1)c1cc(N2CC2)c([N+](=O)[O-])cc1[N+](=O)[O-] [Compound 3, 5-(aziridin-1-yl)-N-[2-(4-morpholino)ethyl]-2,4-dinitrobenzamide] has an IC50 of 494 µM.

Each compound was assayed on human colon carcinoma NR+ line (WC14 10), NR transfectant (assay: Cytotoxicity, 18 h drug exposure, WiDr NR+ line (WC14 10)). Settings: Homo sapiens, WiDr; WC14 10 cells, 18 h drug exposure; read-out: WiDr NR+ IC50.
Assay type: cell-based
From the text: as §1
CS(=O)(=O)c1cc([N+](=O)[O-])c(C(N)=O)cc1N1CC1 [Compound 12, 5-(aziridin-1-yl)-4-(methylsulfonyl)-2-nitrobenzamide] gave an IC50 of 22 µM.
In the case of NC(=O)c1c([N+](=O)[O-])ccc(N2CC2)c1[N+](=O)[O-] [Compound 13, 3-(aziridin-1-yl)-2,6-dinitrobenzamide], the IC50 is reported as 58 µM.
O=C(NCC(O)CO)c1cc([N+](=O)[O-])cc([N+](=O)[O-])c1N1CC1 (stereo not drawn) [Compound 17, 2-(aziridin-1-yl)-N-(2,3-dihydroxypropyl)-3,5-dinitrobenzamide] gave an IC50 of 12 µM.

Same assay, conditions: WC14 10 cells, 18 h drug exposure; read-out: WiDr NR+ IC50
In the case of O=C(NCCN1CCOCC1)c1cc(N2CC2)c([N+](=O)[O-])cc1[N+](=O)[O-] [Compound 3, 5-(aziridin-1-yl)-N-[2-(4-morpholino)ethyl]-2,4-dinitrobenzamide], the IC50 is reported as 0.72 µM.

Same assay, conditions: WIDR vs WC14 10; inter-experiment average
For O=C(NCCN1CCOCC1)c1cc(N2CC2)c([N+](=O)[O-])cc1[N+](=O)[O-] [Compound 3, 5-(aziridin-1-yl)-N-[2-(4-morpholino)ethyl]-2,4-dinitrobenzamide], the “WiDr ratio of IC50s” value was 183.
For CS(=O)(=O)c1cc([N+](=O)[O-])c(C(N)=O)cc1N1CC1 [Compound 12, 5-(aziridin-1-yl)-4-(methylsulfonyl)-2-nitrobenzamide], the “WiDr ratio of IC50s” value was 10.
NC(=O)c1c([N+](=O)[O-])ccc(N2CC2)c1[N+](=O)[O-] [Compound 13, 3-(aziridin-1-yl)-2,6-dinitrobenzamide] was tested, and the “WiDr ratio of IC50s” value was 5.9.
With O=C(NCC(O)CO)c1cc([N+](=O)[O-])cc([N+](=O)[O-])c1N1CC1 (stereo not drawn) [Compound 17, 2-(aziridin-1-yl)-N-(2,3-dihydroxypropyl)-3,5-dinitrobenzamide] the “WiDr ratio of IC50s” value was 71.

These compounds were tested on EMT6 mouse mammary carcinoma line (assay: Cytotoxicity, 18 h drug exposure, EMT6 NR− line). Settings: EMT6 cells, 18 h drug exposure; read-out: EMT6 NR− IC50.
Assay type: cell-based
From the text: as §1
For O=C(NCCN1CCOCC1)c1cc(N2CC2)c([N+](=O)[O-])cc1[N+](=O)[O-] [Compound 3, 5-(aziridin-1-yl)-N-[2-(4-morpholino)ethyl]-2,4-dinitrobenzamide], the IC50 was 229 µM.

Same assay, conditions: Mus musculus; EMT6 cells, 18 h drug exposure; read-out: EMT6 NR− IC50
Compound NC(=O)c1c([N+](=O)[O-])ccc(N2CC2)c1[N+](=O)[O-] [Compound 13, 3-(aziridin-1-yl)-2,6-dinitrobenzamide] has an IC50 of 287 µM.

The compounds below were run on EN2A, NR-transformed counterpart of EMT6 (assay: Cytotoxicity, 18 h drug exposure, EMT6 NR+ line (EN2A)). Settings: EMT6 vs EN2A; inter-experiment average.
Assay type: cell-based, mouse
From the text: as §1
For O=C(NCCN1CCOCC1)c1cc(N2CC2)c([N+](=O)[O-])cc1[N+](=O)[O-] [Compound 3, 5-(aziridin-1-yl)-N-[2-(4-morpholino)ethyl]-2,4-dinitrobenzamide], the “EMT6 ratio of IC50s” value was 4505.
NC(=O)c1c([N+](=O)[O-])ccc(N2CC2)c1[N+](=O)[O-] [Compound 13, 3-(aziridin-1-yl)-2,6-dinitrobenzamide] was tested, and the “EMT6 ratio of IC50s” value was 10.

Same assay, conditions: EN2A cells, 18 h drug exposure; read-out: EMT6 NR+ IC50
O=C(NCCN1CCOCC1)c1cc(N2CC2)c([N+](=O)[O-])cc1[N+](=O)[O-] [Compound 3, 5-(aziridin-1-yl)-N-[2-(4-morpholino)ethyl]-2,4-dinitrobenzamide] gave an IC50 of 0.061 µM.

Same assay, conditions: Mus musculus, EMT6; EN2A cells, 18 h drug exposure; read-out: EMT6 NR+ IC50
In the case of NC(=O)c1c([N+](=O)[O-])ccc(N2CC2)c1[N+](=O)[O-] [Compound 13, 3-(aziridin-1-yl)-2,6-dinitrobenzamide], the IC50 is reported as 27 µM.

Each compound was assayed on Chinese hamster fibroblast NR+ line (T79-A3), NR transfectant (assay: Cytotoxicity, 18 h drug exposure, V79 NR+ line (T79-A3)). Settings: Cricetulus griseus, Fibroblast; T79-A3 cells, 18 h drug exposure; read-out: V-79 NR+ IC50.
Assay type: cell-based
From the text: as §1
CS(=O)(=O)c1cc([N+](=O)[O-])c(C(N)=O)cc1N1CC1 [Compound 12, 5-(aziridin-1-yl)-4-(methylsulfonyl)-2-nitrobenzamide] gave an IC50 of 40 µM.
NC(=O)c1c([N+](=O)[O-])ccc(N2CC2)c1[N+](=O)[O-] [Compound 13, 3-(aziridin-1-yl)-2,6-dinitrobenzamide] was tested, and the IC50 was 135 µM.
O=C(NCC(O)CO)c1cc([N+](=O)[O-])cc([N+](=O)[O-])c1N1CC1 (stereo not drawn) [Compound 17, 2-(aziridin-1-yl)-N-(2,3-dihydroxypropyl)-3,5-dinitrobenzamide] was tested, and the IC50 was 6 µM.

Same assay, conditions: T78-1 vs T79-A3; inter-experiment average
With O=C(NCCN1CCOCC1)c1cc(N2CC2)c([N+](=O)[O-])cc1[N+](=O)[O-] [Compound 3, 5-(aziridin-1-yl)-N-[2-(4-morpholino)ethyl]-2,4-dinitrobenzamide] the “V-79 ratio of IC50s” value was 4160.
For CS(=O)(=O)c1cc([N+](=O)[O-])c(C(N)=O)cc1N1CC1 [Compound 12, 5-(aziridin-1-yl)-4-(methylsulfonyl)-2-nitrobenzamide], the “V-79 ratio of IC50s” value was 12.
With NC(=O)c1c([N+](=O)[O-])ccc(N2CC2)c1[N+](=O)[O-] [Compound 13, 3-(aziridin-1-yl)-2,6-dinitrobenzamide] the “V-79 ratio of IC50s” value was 3.8.
In the case of O=C(NCC(O)CO)c1cc([N+](=O)[O-])cc([N+](=O)[O-])c1N1CC1 (stereo not drawn) [Compound 17, 2-(aziridin-1-yl)-N-(2,3-dihydroxypropyl)-3,5-dinitrobenzamide], the “V-79 ratio of IC50s” value is reported as 208.

Same assay, conditions: T79-A3 cells, 18 h drug exposure; read-out: V-79 NR+ IC50
Work on O=C(NCCN1CCOCC1)c1cc(N2CC2)c([N+](=O)[O-])cc1[N+](=O)[O-] [Compound 3, 5-(aziridin-1-yl)-N-[2-(4-morpholino)ethyl]-2,4-dinitrobenzamide] yielded an IC50 of 0.15 µM.

Each compound was assayed on human ovarian carcinoma NR+ line (SC3.2), NR transfectant (assay: Cytotoxicity, 18 h drug exposure, SKOV NR+ line (SC3.2)). Settings: Homo sapiens; SC3.2 cells, 18 h drug exposure; read-out: SKOV NR+ IC50.
Assay type: cell-based
From the text: as §1
CS(=O)(=O)c1cc([N+](=O)[O-])c(C(N)=O)cc1N1CC1 [Compound 12, 5-(aziridin-1-yl)-4-(methylsulfonyl)-2-nitrobenzamide] showed an IC50 of 22 µM.
Work on NC(=O)c1c([N+](=O)[O-])ccc(N2CC2)c1[N+](=O)[O-] [Compound 13, 3-(aziridin-1-yl)-2,6-dinitrobenzamide] yielded an IC50 of 66 µM.
O=C(NCC(O)CO)c1cc([N+](=O)[O-])cc([N+](=O)[O-])c1N1CC1 (stereo not drawn) [Compound 17, 2-(aziridin-1-yl)-N-(2,3-dihydroxypropyl)-3,5-dinitrobenzamide] was tested, and the IC50 was 7.3 µM.

Same assay, conditions: SC3.2 cells, 18 h drug exposure; read-out: SKOV NR+ IC50
Compound O=C(NCCN1CCOCC1)c1cc(N2CC2)c([N+](=O)[O-])cc1[N+](=O)[O-] [Compound 3, 5-(aziridin-1-yl)-N-[2-(4-morpholino)ethyl]-2,4-dinitrobenzamide] has an IC50 of 0.45 µM.

Same assay, conditions: SKOV3 vs SC3.2; inter-experiment average
For O=C(NCCN1CCOCC1)c1cc(N2CC2)c([N+](=O)[O-])cc1[N+](=O)[O-] [Compound 3, 5-(aziridin-1-yl)-N-[2-(4-morpholino)ethyl]-2,4-dinitrobenzamide], the “SKOV ratio of IC50s” value was 1100.
CS(=O)(=O)c1cc([N+](=O)[O-])c(C(N)=O)cc1N1CC1 [Compound 12, 5-(aziridin-1-yl)-4-(methylsulfonyl)-2-nitrobenzamide] was tested, and the “SKOV ratio of IC50s” value was 19.
With NC(=O)c1c([N+](=O)[O-])ccc(N2CC2)c1[N+](=O)[O-] [Compound 13, 3-(aziridin-1-yl)-2,6-dinitrobenzamide] the “SKOV ratio of IC50s” value was 9.5.
With O=C(NCC(O)CO)c1cc([N+](=O)[O-])cc([N+](=O)[O-])c1N1CC1 (stereo not drawn) [Compound 17, 2-(aziridin-1-yl)-N-(2,3-dihydroxypropyl)-3,5-dinitrobenzamide] the “SKOV ratio of IC50s” value was 184.
